Test results taken from publication PMC7555312, “Functional Characterization of Temporin-SHe, a New Broad-Spectrum Antibacterial and Leishmanicidal Temporin-SH Paralog from the Sahara Frog (Pelophylax saharicus)” (International Journal of Molecular Sciences, 2020).
Where no end group is shown, it is not given here.

How the values were obtained:
A. baumannii ATCC 19606 = assay type: cell-based, Acinetobacter baumannii
Protocol: (§1) Antimicrobial activity was assessed with a liquid growth inhibition assay performed according to a previously described protocol [14] using the Clinical and Laboratory Standards Institute (CLSI) guidelines. Briefly, in 96-well microtitration plates, mid-log-phase bacteria diluted to 10^6 CFU/mL in Mueller–Hinton (MH) broth were added to different concentrations of synthetic temporin-SHe (1–200 µM, final concentrations) and incubated at 37 °C for 18–20 h, under shaking (150 rpm). For E. faecalis, L. ivanovii and yeasts/fungi, 10^6 CFU/mL suspensions were prepared in LB broth, brain heart infusion (BHI) medium and Yeast Peptone Dextrose (YPD) medium, respectively, and incubation was performed at 30 °C for yeasts/fungi. […] MIC values represent the average of three independent experiments, each performed in triplicate with negative (no peptide) and positive (formaldehyde 0.7%) controls.

S. aureus ATCC 25923 = assay type: cell-based, Staphylococcus aureus
Protocol: as §1

C. albicans ATCC 90028 = assay type: cell-based, Candida albicans
Protocol: (§2) Antifungal activity was evaluated against C. albicans (ATCC 90028), C. parapsilosis (ATCC 22019) and S. cerevisiae.
as §1

[1] = system: C. parapsilosis ATCC 22019; assay type: cell-based, Candida parapsilosis
Protocol: as §2, §1

**Q.** Which results are given for FLPALAGIAGLLGKIF-NH2 [Temporin-SHe]?
**A.** MIC (A. baumannii ATCC 19606): 25 µM; MIC (S. aureus ATCC 25923): 3.12 µM; MIC (C. albicans ATCC 90028): >100 µM; MIC [1]: 50 µM
